# Source: PubChem BioAssay (NCI)
#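 Following 48 hours of exposure in 96-well plates, responses at five concentrations were used to interpolate endpoints linearly. At the GI50, growth is halved. Definition used: TGI = concentration required for complete inhibition of growth.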
# Columns and labels:
# Assay in all cases: NCI anticancer screen, dose series, 48 h
# SNB-78 CNS = test system: SNB-78 CNS
# U251 CNS = test system: U251 CNS
# COLO 205 colon = test system: COLO 205 colon
# HCT-15 colon = test system: HCT-15 colon
# HCC-2998 colon = test system: HCC-2998 colon
# CAKI-1 renal = test system: CAKI-1 renal
# M19-MEL melanoma = test system: M19-MEL melanoma
# A498 renal = test system: A498 renal
# LOX IMVI melanoma = test system: LOX IMVI melanoma
# SR leukemia = test system: SR leukemia
SMILES,TGI (SNB-78 CNS),TGI (U251 CNS),TGI (COLO 205 colon),TGI (HCT-15 colon),TGI (HCC-2998 colon),TGI (CAKI-1 renal),TGI (M19-MEL melanoma),TGI (A498 renal),TGI (LOX IMVI melanoma),TGI (SR leukemia),GI50 (U251 CNS),GI50 (COLO 205 colon),GI50 (HCT-15 colon),GI50 (SR leukemia),GI50 (HCC-2998 colon),GI50 (CAKI-1 renal),GI50 (A498 renal),GI50 (LOX IMVI melanoma),GI50 (SNB-78 CNS)
NC(=O)c1ccc(Cl)c([N+](=O)[O-])c1,> 100 µM,> 100 µM,> 100 µM,> 100 µM,> 100 µM,> 100 µM,> 100 µM,> 100 µM,> 100 µM,,,,,,,,,,
N#Cc1cccc(N2C(=O)C3C4C=CC(C3C2=O)C2C(=O)N(c3cccc(C#N)c3)C(=O)C42)c1 (stereo not given),33.7 µM,26.8 µM,> 63.1 µM,> 63.1 µM,> 56.2 µM,> 87 µM,,42 µM,> 63.1 µM,49.5 µM,,,,,,,,,
Nc1cccc2c1C(=O)c1cccc(NC(=O)c3ccccc3)c1C2=O,,13.8 µM,6.74 µM,> 100 µM,> 100 µM,3.01 µM,,6.56 µM,> 100 µM,> 100 µM,540 nM,354 nM,448 nM,165 nM,2790 nM,229 nM,0.306 µM,565 nM,
CO[C@@]1(c2ccccc2)O[C@H]2OCCC2[C@H]1c1ccc(Cl)cc1 (stereo not given in full),> 100 µM,94 µM,42.2 µM,> 100 µM,> 100 µM,> 100 µM,,53.3 µM,77.4 µM,> 100 µM,,,,,,,,,
Cc1cc(O)c(-c2ccc([C@@H](C)CN(C)C)cc2)c2c1[nH]c(=O)c1sccc12,,17.4 µM,5.2 µM,31.3 µM,12.6 µM,33.4 µM,,0.929 µM,27.5 µM,26.6 µM,399 nM,2180 nM,1420 nM,363 nM,1060 nM,1820 nM,0.265 µM,785 nM,
C=C1C[C@@H]2C[C@@H](C)CC(O)[C@]2(CCCN)C1O (stereo not given in full),> 100 µM,> 100 µM,> 100 µM,,> 100 µM,> 100 µM,> 100 µM,> 100 µM,> 100 µM,> 100 µM,,,,,,,,,
O=C(/C=C/C12c3ccccc3C(c3ccccc31)C1C(=O)NC(=O)C12)c1ccccc1 (stereo not given),,2.96 µM,4.03 µM,6.84 µM,3.27 µM,3.68 µM,,2.82 µM,3.12 µM,17.6 µM,1550 nM,2050 nM,1640 nM,1570 nM,1700 nM,1490 nM,1.42 µM,1630 nM,
CC(=O)[O-].N.N.N.N.[Co+3].[O-][Cl+3]([O-])([O-])[O-].[OH3+],> 100 µM,> 100 µM,> 100 µM,> 100 µM,> 100 µM,,,> 100 µM,> 100 µM,,> 100000 nM,> 100000 nM,> 100000 nM,,> 100000 nM,,> 100 µM,> 100000 nM,> 100 µM
COC(=O)N/N=C(\C)CC(=O)Nc1ccc(Cl)cc1,> 100 µM,> 100 µM,> 100 µM,,> 100 µM,,> 100 µM,> 100 µM,> 100 µM,,,,,,,,,,
Cc1cccc2c1[nH]c(=O)c1c3ccccc3cn21,,19.4 µM,34.8 µM,31.7 µM,16.3 µM,8.75 µM,,42.1 µM,18.4 µM,4.15 µM,6570 nM,7330 nM,5250 nM,1540 nM,4600 nM,2190 nM,16.1 µM,6220 nM,
CC(C)c1ccc(NC(=O)Cc2ccc(Nc3ncnc4cc(-c5cnn(CCN(C)C)c5)ccc34)cc2)cc1,,4.5 µM,1.83 µM,4.08 µM,3.42 µM,2.88 µM,,> 10 µM,3.37 µM,2.42 µM,1700 nM,218 nM,1550 nM,107 nM,1660 nM,1180 nM,0.128 µM,1360 nM,
COc1cc(NCCCCCN=C(N)NC(N)=NC(C)C)c2ncccc2c1,,11.8 µM,1.74 µM,> 100 µM,4.96 µM,> 100 µM,,28.1 µM,2.79 µM,15.8 µM,1690 nM,468 nM,34100 nM,2080 nM,952 nM,> 73100 nM,13.8 µM,495 nM,
CC(C)(C)OC(=O)Nc1ccc2c(c1)C(NC(=O)Nc1cccc(C#N)c1)CC(C)(C)O2 (stereo not given),,> 58.2 µM,15.3 µM,> 51.3 µM,> 100 µM,> 42.6 µM,,> 100 µM,> 60.5 µM,30 µM,1760 nM,3460 nM,1890 nM,2180 nM,4930 nM,2490 nM,7.14 µM,1530 nM,
c1ccc(OC2=NC3=S(S2)SC(Oc2ccccc2)=N3)cc1,48.1 µM,26.8 µM,37.2 µM,43.3 µM,35.2 µM,34.3 µM,34.7 µM,75 µM,43.4 µM,,,,,,,,,,
C[CH2][Sn]([CH2]C)([O]C(=O)c1ccc(F)cc1)[O]C(=O)c1ccc(F)cc1,37.9 µM,42 µM,39.6 µM,> 63 µM,> 100 µM,16.3 µM,,36.3 µM,37.9 µM,,19000 nM,20300 nM,25700 nM,,90900 nM,4050 nM,16.8 µM,18000 nM,20 µM
COc1ccc([C@@H]2OC(=O)C3C2C(=O)O[C@H]3c2ccc(OC)c(OC)c2)cc1OC (stereo not given in full),> 100 µM,> 100 µM,> 100 µM,> 100 µM,> 100 µM,,> 100 µM,> 100 µM,> 100 µM,,,,,,,,,,
CC1=CCCC2C(C=O)(C1)CC(C)C2(CO)CC/C(=C/CO)CO (stereo not given),> 100 µM,> 100 µM,> 100 µM,> 100 µM,> 100 µM,> 100 µM,> 100 µM,> 100 µM,> 100 µM,,,,,,,,,,
O=c1c2cc3ccccc3n2c(=O)c2cc3ccccc3n12,> 100 µM,> 100 µM,,> 100 µM,> 100 µM,> 100 µM,> 100 µM,> 100 µM,> 100 µM,> 100 µM,,,,,,,,,
